# Results taken from US4137420A, “Cysteine derivatives” (Santen Pharmaceutical Co., Ltd., priority 1976, dated 1979).
# What was measured:
# [1] = In vitro determination of the reduction in viscosity of egg white; details: 20 minutes at 37° C, mean ± S.E. of 3 to 5 experiments
# Description: Mucolytic activity is evaluated by determining the reduction in viscosity of egg white or mucin in vitro. L-Cysteine ethyl ester hydrochloride, L-cysteine methyl ester hydrochloride and acetyl-L-cysteine are used as test compounds for comparison. (1) In vitro determination of the reduction in viscosity of egg white Egg white, which is pooled in sufficient quantity to supply material for all the determinations, is gently blended in a mixer for 5 minutes. 9ml portions of this material are put into a 50-ml beaker and the test solution in a volume of 1ml containing various concentrations of test compound (test compound is dissolved in distilled water and the solution is adjusted to pH 8.0 with 1 N sodium hydroxide, while distilled water is used as a control) is added. The mixture is then shaken for 20 minutes at 37° C. Viscosity of the resulting solution is determined by an Ostwald viscosimeter. Results shown in Table 1 are percent reduction in relative viscosity at various concentrations of the test compound used.
# mucin = assay: In vitro determination of the reduction in viscosity of mucin; details: 10 mM; 1% mucin, pH 8.0, 1 hour at 37° C; mean ± S.E. of 3 to 5 experiments
# Description: Mucolytic activity is evaluated by determining the reduction in viscosity of egg white or mucin in vitro. L-Cysteine ethyl ester hydrochloride, L-cysteine methyl ester hydrochloride and acetyl-L-cysteine are used as test compounds for comparison.
# (2) In vitro determination of the reduction in viscosity of mucin
# According to the method presented by Sheffner et al. (Ann, N.Y. Acad. Sci., Vol. 106, P 298-310, 1963), bacteriological mucin (Nakarai Chemical Co., Ltd.) is dissolved in Sorensen's phosphate buffer (pH =8.0) and a 1% mucin solution is prepared. 0.9ml portions of the solution are put into test tubes and test compounds (prepared in the same manner as in (1) previously described, except that the buffer solution is used for control) are added to them in a concentration 10mM. The mixture is then shaken for 1 hour at 37° C. The viscosity of the resulting solution is determined by Ostwald viscosimeter. Results shown in Table 1 are percent reduction in relative viscosity at 10mM of the test compounds used.
# in vivo = details: mouse, ip
# Description: 5-week-old male mice of ddy strain (body weight 24-28g) are used. […] Test solution
# Test compound is added to physiological saline and the resulting solution is neutralized with sodium hydroxide to form a 5% solution (pH 7.0).
# After administration of test solution, general symptoms and deaths which are caused during seven days are observed. The LD50 values are calculated according to the method of Litchfield and Wilcoxon.
# [2] = Changes in the mucolytic activity of the test compounds treated with rabbit serum (viscosity of egg white); details: for Reduction in the mucolytic activity (%): 1.0 mM, rabbit serum treated vs untreated; for Percent reduction in relative viscosity of egg white, treated with rabbit serum / Percent reduction in relative viscosity of egg white, untreated with rabbit serum: final concentration 1.0 mM, mean ± S.E. of 3 to 5 experiments; for Percent reduction in relative viscosity of egg white, treated with rabbit serum: after 30 minutes at 37° C with rabbit serum; for Percent reduction in relative viscosity of egg white, untreated with rabbit serum: without rabbit serum
# Description: (3) Changes in the mucolytic activity of the test compounds treated with rabbit serum.
# 0.1ml of test compound (prepared in the same manner as (1) previously described) and 0.9ml of rabbit serum are put into a 50-ml beaker and the resulting mixture is shaken for 30 minutes at 37° C. 9ml of egg white is then added it and it is shaken for another 20 minutes. The viscosity of the resulting solution is determined by an Ostwald viscosimeter. Results shown in Table 2 are percent reduction in the relative viscosity of egg white at 1mM of the test compounds after treatment with or without rabbit serum.
SMILES,"Percent reduction in relative viscosity, egg white ([1]; final concentration 0.1 mM) [%]","Percent reduction in relative viscosity, egg white ([1]; final concentration 10.0 mM) [%]","Percent reduction in relative viscosity, mucin (mucin) [%]",LD50 at 168 h (in vivo) [mg/kg],Reduction in the mucolytic activity (%) [2] [%],"Percent reduction in relative viscosity of egg white, treated with rabbit serum [2] [%]","Percent reduction in relative viscosity of egg white, untreated with rabbit serum [2] [%]"
"CC(S)C(=O)N[C@@H](CS)C(=O)O (single isomer, unassigned) [N-(2-mercaptopropionyl)-L-cysteine-A]",24.9 ± 1.5,56.4 ± 1.6,26.6 ± 1.5,2090,27.2,30.0 ± 1.0,41.2 ± 2.1
"CC(S)C(=O)N[C@@H](CS)C(=O)O (single isomer, unassigned) [N-(2-mercaptopropionyl)-L-cysteine-B]",24.9 ± 1.4,57.7 ± 1.0,20.1 ± 0.4,–,18.8,31.1 ± 3.8,38.1 ± 2.6
"CCOC(=O)[C@@H](N)CS.Cl [L-cysteine ethyl ester hydrochloride, L-Cysteine ethyl ester hydrochloride, reference compound]",25.1 ± 3.5,59.9 ± 1.2,19.7 ± 1.5,–,63.3,15.4 ± 1.8,42.0 ± 1.1
"COC(=O)[C@@H](N)CS.Cl [L-cysteine methyl ester hydrochloride, reference compound]",31.1 ± 5.6,60.6 ± 2.4,17.8 ± 0.2,–,84.6,7.0 ± 1.2,45.5 ± 2.0
CC(C)(S)C(=O)N[C@@H](CS)C(=O)O [N-(2-mercaptoisobutyryl)-L-cysteine],23.1 ± 1.4,57.0 ± 1.0,22.5 ± 1.5,–,14.1,32.9 ± 1.0,38.3 ± 2.2
O=C(CCS)N[C@@H](CS)C(=O)O [N-(3-mercaptopropionyl)-L-cysteine],22.8 ± 0.1,54.5 ± 4.7,28.1 ± 0.5,–,-5.4,38.7 ± 2.6,36.7 ± 1.6
"CC(=O)N[C@@H](CS)C(=O)O [N-acetyl-L-cysteine, acetyl-L-cysteine, reference compound]",11.0 ± 2.6,49.0 ± 1.8,4.8 ± 2.5,–,37.3,18.5 ± 0.8,29.5 ± 2.5
O=C(CS)N[C@@H](CS)C(=O)O [N-mercaptoacetyl-L-cysteine],26.1 ± 4.1,60.0 ± 4.4,31.8 ± 1.5,–,9.8,35.9 ± 0.3,39.8 ± 3.0
